Experimental data as given in patent US8177962B2, “Metal corrosion inhibitor and hydrogen chloride formation inhibitor in a crude oil atmospheric distillation unit” (Kurita Water Industries, Ltd., priority 2002, dated 2012).

Legend:
[1] = thermal decomposition at 760° C., GC/MS, FIG. 3
Experimental: Choline chloride was subjected to thermal decomposition GC/MS analysis. 5989A manufactured by Hewlett Packard was used as the GC/MS analyzer, and DB624 manufactured by J&W (0.32 mm×30 m, membrane thickness of 1.8 μm) was used as the column. The temperature for thermal decomposition of choline chloride was 760° C.

[2] = Base dissociation constant (Kb) calculated from pH meter measurement; assay type: physicochemical; conditions: for Kb value (25° C.): Table 1; for Kb (25° C.) / Kb (170° C.): Table 6

Row | Compound | thermal decomposition products [1] | Kb value (25° C.) [2] | Kb (25° C.) [2] | Kb (170° C.) [2]
1 | C[N+](C)(C)CCO.[Cl-] [Choline hydrochloride (choline chloride), choline chloride] | produces methyl chloride, trimethylamine and N,N-dimethylaminoethanol by thermal decomposition, but does not produce hydrogen chloride |  |  | 
2 | C[N+](C)(C)CCO.[OH-] [Choline, (β-hydroxyethyl)trimethylammonium hydroxide] |  | 3.14 × 10^−3 | 3.14 × 10^−3 | 8.40 × 10^−3
3 | NC1CCCCC1 [Cyclohexylamine] |  | 3.39 × 10^−4 |  | 
4 | NCCO [Monoethanolamine] |  | 3.15 × 10^−5 | 2.60 × 10^−5 | 8.42 × 10^−6
5 | C1COCCN1 [Morpholine] |  | 2.09 × 10^−6 |  | 
6 | Dimethylethanolamine |  |  | 2.21 × 10^−5 | 3.38 × 10^−5
